# Measurements from ChEMBL document CHEMBL3627602, “Synthesis of a novel series of 2,3,4-trisubstituted oxazolidines designed by isosteric replacement or rigidification of the structure and cytotoxic evaluation” (Medchemcomm, 2014).
# Active and inactive are the calls of the source. No cut-off for these calls is given here.
# Legend:
# MDA-MB-231 [1] = assay: Antiproliferative activity against human MDA-MB-231 cells incubated for 48 hrs by MTT assay; format: functional, cell-based; conditions: MDA-MB-231, 48 h
# Jurkat = assay: Antiproliferative activity against human Jurkat cells incubated for 48 hrs by MTT assay; format: functional, cell-based
# HL-60 [2] = assay: Antiproliferative activity against human HL60 cells incubated for 48 hrs by MTT assay; format: functional, cell-based; conditions: HL-60, 48 h
# LNCaP [3] = assay: Antiproliferative activity against human LNCAP cells incubated for 48 hrs by MTT assay; format: functional, cell-based
# MDA-MB-231 [4] = assay: Induction of DNA fragmentation in human MDA-MB-231 cells at 50 uM after 24 hrs using propidium iodide staining by flow cytometric analysis; format: functional, cell-based
# HL-60 [5] = assay: Induction of DNA fragmentation in human HL60 cells at 50 uM after 24 hrs using propidium iodide staining by flow cytometric analysis; format: functional, cell-based
# Vero = assay: Cytotoxicity against African green monkey Vero cells incubated for 48 hrs by MTT assay; format: cell-based; conditions: Chlorocebus sabaeus
# PBMC = assay: Antiproliferative activity against human PBMC incubated for 48 hrs by MTT assay; format: cell-based
# LNCaP [6] = assay: Selectivity index, ratio of IC50 for human PBMC to IC50 for human LNCAP cells
# LNCaP [7] = assay: Selectivity index, ratio of IC50 for African green monkey Vero cells to IC50 for human LNCAP cells; format: functional
Compound,IC50 (MDA-MB-231 [1]),IC50 (Jurkat),IC50 (HL-60 [2]),IC50 (LNCaP [3]),Activity (MDA-MB-231 [4]),Activity (HL-60 [5]),IC50 (Vero),IC50 (PBMC),Ratio IC50 (LNCaP [6]),Ratio IC50 (LNCaP [7])
CC(C)(C)OC(=O)N1[C@@H](C(=O)Nc2ccc([N+](=O)[O-])cc2)COC1(C)C,> 80 µM,> 50 µM,> 50 µM,> 80 µM,–,–,–,–,–,–
COC(=O)c1ccc(CC[C@H]2COC(C)(C)N2C(=O)OC(C)(C)C)cc1,> 80 µM,> 50 µM,20 µM,37 µM,–,–,–,–,–,–
CC(C)(C)OC(=O)N1[C@@H](/C=C\c2ccc([N+](=O)[O-])cc2)COC1(C)C,32 µM,42 µM,18 µM,27 µM,inactive,Active,> 100 µM,> 100 µM,–,–
CC(C)(C)OC(=O)N1[C@@H](/C=C/c2ccc([N+](=O)[O-])cc2)COC1(C)C,32 µM,46 µM,23 µM,11 µM,inactive,Active,> 100 µM,> 100 µM,>9,>9
CC(C)(C)OC(=O)N1[C@@H](CSc2ccc([N+](=O)[O-])cc2)COC1(C)C,> 80 µM,> 50 µM,> 50 µM,> 80 µM,–,–,–,–,–,–
